Measurements: US8497092B2, “Method of bioassaying yokukansan” (Tsumura & Co., priority 2008, dated 2013)

How the values were obtained:
PC12 cells [1] = assay: Induction of cell death by glutamate in PC12 cells (MTT assay); format: cell-based, rat; details: regardless of whether NGF stimulation is present
Experimental: By using PC12 cells obtained in Example 1, a culture condition to efficiently induce cell death by glutamate was studied as follows.
From the above studies, the best culture condition for inducing cell death by glutamate was determined as follows: the cells are seeded on a plate coated with collagen, and a medium supplemented with dialyzed serum and without phenol red is used as an induction medium. The induction medium contains an antibiotic-containing medium obtained by adding 5 mL of a penicillin-streptomycin solution to 500 mL of RPMI 1640 medium (GIBCO 11835-030), 5% dialyzed fetal bovine serum (GIBCO 26400-044), and 10% dialyzed horse serum (Biowest S090D). […]
After 24 hours from the above induction of cell death, 0.5% MTT solution (Dojindo 345-01821) was added in an amount of 20 μL per 100 μL of the medium in the above 96-well plate and cultured for 5 hours. […] The crystals of formazan were dissolved using a pipette, and after leaving the solution overnight, the absorbance at a wavelength of 570 nm was measured with a reference wavelength of 690 nm using a spectrometer (Multiskan MCC/340, manufactured by Titertek, Inc.). Thereafter, the cell viability was calculated from the following calculation formula on the basis of the obtained absorbance. […]

PC12 cells [2] = details: Non-Patent Documents 1 to 3; cited from earlier work

Molecule	cell death caused by glutamate (PC12 cells [1])	inhibition of cell death caused by glutamate (PC12 cells [2])
N[C@@H](CCC(=O)O)C(=O)O [glutamate]	concentration-dependent manner	–
(−)-epigallocatechin gallate	–	cell death is inhibited
